Values joined by “and” are separate entries in the source; they are usually repeats but may differ in a detail not shown here. Equal values may be shown once. “Also recorded” adds a separate entry of the source.
Tests used:
[1] = system: CCI-induced mechano-allodynia; assay: Chronic constriction injury (CCI) of the sciatic nerve, mechano-allodynia by von Frey filaments; type: in vivo, mouse; conditions: for Reversal of CCI-induced mechano-allodynia: ipsilateral hind paw; for Reversal of CCI-induced mechano-allodynia / Effect at 0.5 h (% ± SD), percent inhibition of mechano-allodynia / Effect at 1 h (% + SD), percent inhibition of mechano-allodynia / Effect at 2 h (% ± SD), percent inhibition of mechano-allodynia / Effect at 3 h (% ± SD), percent inhibition of mechano-allodynia / Effect at 5 h (% ± SD), percent inhibition of mechano-allodynia / ED50: day 7 post-CCI; for Effect at 0.5 h (% ± SD), percent inhibition of mechano-allodynia / Effect at 1 h (% + SD), percent inhibition of mechano-allodynia / Effect at 2 h (% ± SD), percent inhibition of mechano-allodynia / Effect at 3 h (% ± SD), percent inhibition of mechano-allodynia / Effect at 5 h (% ± SD), percent inhibition of mechano-allodynia: n = 3; for ED50: Mus musculus, ip, read-out: ED50 at 1 h (95% CI), reversal of mechano-allodynia, 1 h post drug
Procedure: Chronic constriction injury (CCI) to the sciatic nerve was performed using the Bennett model. […] Then the animals were placed on a sterile surgical field and the skin was wiped with topical antiseptic, Dermachlor solution (0.2% chlorhexidine gluconate). […] A small incision was created on the lateral side of the left hind limb parallel to the femur. The sciatic nerve was exposed and ligated on two sites about 1 mm apart above the trifurcation using silk sutures 6.0. The incision was closed with clips and lidocaine cream was applied.
Mice were acclimated to the testing mesh-rack for 30 min before behavioral measurements. All behavioral testing was performed in the morning. The baseline measurements were determined on day 0 before CCI procedure. On day 7 post-CCI, baseline behavior responses were assessed, beginning prior to drug administration. Following drug injection, the behaviors were evaluated at multiple time points. Mechano-allodynia was quantified according to the hind paw withdrawal response to von Frey filaments stimulation by the Dixon up-and-down method. […] In presence of a positive withdrawal response a lighter filament was applied. If a negative response occurred, a stronger filament was used. At least four readings are obtained after the first positive response and the pattern of response was converted to a 50% paw withdrawal threshold (PWT), using the method described by Chaplan et al., J. Neurosci.
Data are expressed as mean±SD and analyzed by two-tailed, two-way repeated measures ANOVA with Dunnett's post hoc comparisons to day 7 behavior. The percentage of reversal of peak CCI-induced pain afforded by each drug was calculated for each animal using their baseline and day 7 post CCI behavioral measures. % Reversal=(PWT(g)t−PWT(g)day7)/PWT(g)day0−PWT(g)day7)×100, where PWT(g)=paw withdrawal threshold, t=time after drug. […] All statistical analyses were performed using GraphPad Prism 8 (Graph Pad Inc., San Diego, Calif.). Significance was accepted at p<0.05.

[2] = molecular target: T1, CB1 cannabinoid receptor (Homo sapiens, UniProt P21554); assay: PRESTO-Tango agonist/antagonist assay; type: cell-based
T1 construct: expressed in transfected cells
Procedure: (§1) Synthesis of 7 was performed using a Sonogashira reaction (11 to 12), click reaction (13 to 14) and a Suzuki reaction (15 to 16) followed by two-step deprotection. […].

[3] = molecular target: T2, CB2 cannabinoid receptor (Homo sapiens, UniProt P34972); assay: PRESTO-Tango agonist/antagonist assay; type: cell-based
T2 construct: expressed in transfected cells
Procedure: as §1

[4] = molecular target: T3, hP2Y14R (Homo sapiens, UniProt Q15391); assay: Competitive fluorescent binding assay in whole CHO-hP2Y14R cells, tracer 20, flow cytometry; conditions: read-out: Human P2Y14R binding affinity (IC50)
T3 construct: expressed in transfected cells; host or cells: CHO
T3 sequence (Q15391 1-338): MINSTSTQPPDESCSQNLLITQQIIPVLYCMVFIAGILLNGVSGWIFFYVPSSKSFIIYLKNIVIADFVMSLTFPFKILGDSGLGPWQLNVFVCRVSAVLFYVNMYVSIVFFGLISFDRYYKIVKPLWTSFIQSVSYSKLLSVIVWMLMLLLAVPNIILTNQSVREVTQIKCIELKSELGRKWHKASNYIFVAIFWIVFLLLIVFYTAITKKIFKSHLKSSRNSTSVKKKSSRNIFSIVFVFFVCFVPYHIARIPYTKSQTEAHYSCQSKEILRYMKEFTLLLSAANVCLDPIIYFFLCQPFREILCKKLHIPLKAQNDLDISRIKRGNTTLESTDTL

[5] = molecular target: 5HT1D (Homo sapiens, UniProt P28221); assay: PDSP off-target binding; conditions: ± SEM
[6] = molecular target: T4, mP2Y14R (Mus musculus, UniProt Q9ESG6); conditions: read-out: Mouse P2Y14R binding affinity (IC50); mP2Y14R in HEK293 cells, tracer 20
T4 sequence (Q9ESG6 1-338): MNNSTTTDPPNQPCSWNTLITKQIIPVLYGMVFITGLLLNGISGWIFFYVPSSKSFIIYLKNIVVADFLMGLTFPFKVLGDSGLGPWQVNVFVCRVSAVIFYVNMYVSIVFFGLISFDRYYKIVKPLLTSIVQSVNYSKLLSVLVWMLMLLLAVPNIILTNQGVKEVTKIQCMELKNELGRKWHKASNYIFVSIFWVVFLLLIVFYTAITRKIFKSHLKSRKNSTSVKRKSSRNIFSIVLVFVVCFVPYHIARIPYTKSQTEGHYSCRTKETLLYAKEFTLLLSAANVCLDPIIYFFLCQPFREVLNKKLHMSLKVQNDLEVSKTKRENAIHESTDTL

5HT1D, sequence (P28221 whole entry, species assumed): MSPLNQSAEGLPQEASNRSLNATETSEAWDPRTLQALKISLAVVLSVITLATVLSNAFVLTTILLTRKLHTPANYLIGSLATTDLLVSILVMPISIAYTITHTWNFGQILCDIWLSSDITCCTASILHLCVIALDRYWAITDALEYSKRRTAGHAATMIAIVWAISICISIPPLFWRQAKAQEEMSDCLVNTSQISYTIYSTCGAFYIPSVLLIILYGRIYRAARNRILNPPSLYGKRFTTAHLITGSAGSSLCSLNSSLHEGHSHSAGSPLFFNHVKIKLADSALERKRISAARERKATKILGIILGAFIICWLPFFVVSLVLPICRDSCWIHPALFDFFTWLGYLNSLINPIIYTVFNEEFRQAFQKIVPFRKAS
T1 sequence (P21554 whole entry): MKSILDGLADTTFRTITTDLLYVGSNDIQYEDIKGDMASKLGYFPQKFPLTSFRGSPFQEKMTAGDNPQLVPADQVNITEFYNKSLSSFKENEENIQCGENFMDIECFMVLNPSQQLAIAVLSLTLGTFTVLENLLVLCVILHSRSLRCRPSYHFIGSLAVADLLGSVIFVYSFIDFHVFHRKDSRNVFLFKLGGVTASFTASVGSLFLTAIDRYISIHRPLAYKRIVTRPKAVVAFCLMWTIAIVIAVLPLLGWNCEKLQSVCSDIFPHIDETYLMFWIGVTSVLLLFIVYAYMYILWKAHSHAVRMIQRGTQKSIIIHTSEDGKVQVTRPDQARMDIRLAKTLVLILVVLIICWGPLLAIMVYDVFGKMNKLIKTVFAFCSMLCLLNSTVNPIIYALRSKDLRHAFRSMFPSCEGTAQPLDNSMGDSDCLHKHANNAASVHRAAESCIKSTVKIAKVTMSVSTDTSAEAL
T2 sequence (P34972 whole entry): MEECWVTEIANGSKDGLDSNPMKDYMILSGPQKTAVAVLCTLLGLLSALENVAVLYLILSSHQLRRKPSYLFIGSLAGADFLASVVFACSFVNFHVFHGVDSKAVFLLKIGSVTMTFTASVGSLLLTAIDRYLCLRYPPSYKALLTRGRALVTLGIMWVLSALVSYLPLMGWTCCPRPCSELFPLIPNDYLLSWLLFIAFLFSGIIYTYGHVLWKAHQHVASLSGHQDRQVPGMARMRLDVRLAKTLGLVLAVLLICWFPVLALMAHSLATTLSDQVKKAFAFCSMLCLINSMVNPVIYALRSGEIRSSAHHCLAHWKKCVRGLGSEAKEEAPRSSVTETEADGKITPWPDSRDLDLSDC

Row | SMILES | Reversal of CCI-induced mechano-allodynia ([1]; 10 μmol/kg, i.p.) | Effect at 0.5 h (% ± SD), percent inhibition of mechano-allodynia ([1]; 10 μmol/kg, i.p.) [%] | Effect at 1 h (% + SD), percent inhibition of mechano-allodynia ([1]; 10 μmol/kg, i.p.) | Effect at 2 h (% ± SD), percent inhibition of mechano-allodynia ([1]; 10 μmol/kg, i.p.) [%] | Effect at 3 h (% ± SD), percent inhibition of mechano-allodynia ([1]; 10 μmol/kg, i.p.) [%] | Effect at 5 h (% ± SD), percent inhibition of mechano-allodynia ([1]; 10 μmol/kg, i.p.) [%] | IC50 [4] [nM] | IC50 [6] [nM] | also measured
1 | NCCOCCOCCOCCOCCOCCOCCC(=O)N1CCC(c2ccc(-c3cc(C(=O)O)cc4cc(-c5ccc(C(F)(F)F)cc5)ccc34)cc2)CC1 [Compound 21] | fully efficacious |  |  |  |  |  |  |  | Time of peak protection ([1]; 10 μmol/kg i.p., after injection): 1 to 2 h; Effect on paw withdrawal threshold at the contralateral hind paw ([1]; 10 μmol/kg, i.p., versus vehicle control): No effect
2 | O=C(O)c1cc(-c2ccc(C3CCNCC3)cc2)c2ccc(-c3ccc(C(F)(F)F)cc3)cc2c1 [Compound 1, 4-[4-(piperidin-4-yl)phenyl]-7-[4-(rifluoromethyl)phenyl]-2-naphthoic acid] | fully efficacious; also recorded: reversed the allodynia | 87.9 ± 12.9 | 100% and 100 ± 0.0% | 96.4 ± 6.2 | 78.6 ± 9.4 | 21.3 ± 14.1 |  |  | IC50 [2]: > 50 µM; IC50 [3]: > 50 µM; Effect at 0.5 h (% ± SD), percent inhibition of mechano-allodynia ([1]; 1 μmol/kg, i.p.): 10.0 ± 17.3%; Effect at 1 h (% + SD), percent inhibition of mechano-allodynia ([1]; 1 μmol/kg, i.p.): 19.9 ± 17.3%; Effect at 2 h (% ± SD), percent inhibition of mechano-allodynia ([1]; 1 μmol/kg, i.p.): 10.0 ± 17.3%; Effect at 3 h (% ± SD), percent inhibition of mechano-allodynia ([1]; 1 μmol/kg, i.p.): 4.7 ± 8.2%; Effect at 5 h (% ± SD), percent inhibition of mechano-allodynia ([1]; 1 μmol/kg, i.p.): 4.7 ± 8.2%; Effect at 0.5 h (% ± SD), percent inhibition of mechano-allodynia ([1]; 3 μmol/kg, i.p.): 62.9 ± 18.7%; Effect at 1 h (% + SD), percent inhibition of mechano-allodynia ([1]; 3 μmol/kg, i.p.): 79.3 ± 2.2%; Effect at 2 h (% ± SD), percent inhibition of mechano-allodynia ([1]; 3 μmol/kg, i.p.): 76.9 ± 6.3%; Effect at 3 h (% ± SD), percent inhibition of mechano-allodynia ([1]; 3 μmol/kg, i.p.): 64.7 ± 17.2%; Effect at 5 h (% ± SD), percent inhibition of mechano-allodynia ([1]; 3 μmol/kg, i.p.): 8.7 ± 15.1%; ED50 ([1]; i.p.): 1.6 µmol/kg
3 | NCCCNC(=O)c1ccc(-c2cc(C(=O)O)cc(-n3cc(-c4ccc(C(F)(F)F)cc4)nn3)c2)s1 [Compound 8] |  | 81.0 ± 6.9 | 91.5 ± 7.4% | 74.0 ± 28.5 | 30.9 ± 21.0 | 10.0 ± 17.3 | 169 ± 42 | 384 | Ki [5]: 6.7 µM; Emax, in vivo efficacy ([1]; 10 μmol/kg i.p.): 91.5%
4 | C#CCCCCN1CCC(c2ccc(-c3cc(C(=O)O)cc4cc(-c5ccc(C(F)(F)F)cc5)ccc34)cc2)CC1 [Compound 3] |  | 52.4 ± 23.3 | 75.9 ± 15.0% | 42.7 ± 9.6 | 9.6 ± 16.7 | 0.0 ± 0.0 | 76.3 ± 24.4 | 130 ± 30 | Ratio of protection at 3 h divided by the protection at 5 h (duration of action) ([1]; 10 μmol/kg i.p.): 0.13
5 | O=C(O)c1cc(O)c2ccc(-c3ccc(C(F)(F)F)cc3)cc2c1 [Compound 2] | reversed the allodynia | 23.4 ± 21.2 | 64.2 ± 24.9% | 59.8 ± 18.1 | 35.2 ± 22.2 | 0.0 ± 0.0 | 3200 ± 640 | 1600 ± 250 | 
6 | CCC(=O)N1CCC(c2ccc(-c3cc(C(=O)O)cc4cc(-c5ccc(C(F)(F)F)cc5)ccc34)cc2)CC1 [Compound 5, 4-(4-(1-(Propionyl)piperidin-4-yl)phenyl)-7-(4-(trifluoromethyl)phenyl)-2-naphthoic acid] |  | 32.9 ± 5.7 | 77.2 ± 26.1% | 71.6 ± 19.8 | 55.7 ± 27.1 | 5.6 ± 6.4 | 41.8 ± 1.8 | 38 | 
7 | O=C(O)c1cc(-c2ccc(C3CCNCC3)cc2)cc(-n2cc(-c3ccc(C(F)(F)F)cc3)nn2)c1 [Compound 6] |  | 52.4 ± 9.6 | 67.4 ± 7.0% | 57.2 ± 13.3 | 31.9 ± 16.8 | 12.7 ± 13.2 |  |  | Effect at 0.5 h (% ± SD), percent inhibition of mechano-allodynia ([1]; 1 μmol/kg, i.p.): 8.7 ± 15.1%; Effect at 1 h (% + SD), percent inhibition of mechano-allodynia ([1]; 1 μmol/kg, i.p.): 18.7 ± 21.3%; Effect at 2 h (% ± SD), percent inhibition of mechano-allodynia ([1]; 1 μmol/kg, i.p.): 18.7 ± 21.3%; Effect at 3 h (% ± SD), percent inhibition of mechano-allodynia ([1]; 1 μmol/kg, i.p.): 8.7 ± 7.6%; Effect at 5 h (% ± SD), percent inhibition of mechano-allodynia ([1]; 1 μmol/kg, i.p.): 8.7 ± 15.1%; Effect at 0.5 h (% ± SD), percent inhibition of mechano-allodynia ([1]; 3 μmol/kg, i.p.): 44.6 ± 16.6%; Effect at 1 h (% + SD), percent inhibition of mechano-allodynia ([1]; 3 μmol/kg, i.p.): 53.3 ± 24.2%; Effect at 2 h (% ± SD), percent inhibition of mechano-allodynia ([1]; 3 μmol/kg, i.p.): 44.6 ± 16.6%; Effect at 3 h (% ± SD), percent inhibition of mechano-allodynia ([1]; 3 μmol/kg, i.p.): 35.6 ± 11.7%; Effect at 5 h (% ± SD), percent inhibition of mechano-allodynia ([1]; 3 μmol/kg, i.p.): 0.0 ± 0.0%; In vivo efficacy compared with a comparator compound ([1]; 10 μmol/kg i.p., 6 vs 7, 4 vs 1): no statistical difference; ED50 ([1]; i.p.): 3.5 µmol/kg
